From ChEMBL document CHEMBL3046088, “Systemic effects of thiamethoxam and chlorantraniliprole seed treatments on adult Lissorhoptrus oryzophilus (Coleoptera: Curculionidae) in rice” (2013)
Calls of active or inactive are those of the source. The rule behind the calls is not given here.

How the values were obtained:
[1] = test system: Lissorhoptrus oryzophilus; experiment: Insecticidal activity against Lissorhoptrus oryzophilus in rice plants assessed as mortality at 100 ug treated as seed measured after 72 hr of feeding (reference value: 15 +/- 2.9%); format: functional
[2] = test system: Lissorhoptrus oryzophilus; experiment: Insecticidal activity against Lissorhoptrus oryzophilus in rice plants assessed as mortality at 50 ug treated as seed measured after 72 hr of feeding (reference value: 15 +/- 2.9%); format: functional
[3] = test system: Lissorhoptrus oryzophilus; experiment: Insecticidal activity against Lissorhoptrus oryzophilus in rice plants assessed as mortality at 25 ug treated as seed measured after 72 hr of feeding (reference value: 15 +/- 2.9%); format: functional
[4] = test system: Lissorhoptrus oryzophilus; experiment: Insecticidal activity against Lissorhoptrus oryzophilus in rice plants assessed as mortality at 10 ug treated as seed measured after 72 hr of feeding (reference value: 15 +/- 2.9%); format: functional
[5] = test system: Lissorhoptrus oryzophilus; experiment: Insecticidal activity against Lissorhoptrus oryzophilus in rice plants assessed as leaf consumption rate per day at 100 ug treated as seed measured after 72 hr of feeding (reference value: 8.3 +/- 0.7 mm'2 /day); format: functional
[6] = test system: Lissorhoptrus oryzophilus; experiment: Insecticidal activity against Lissorhoptrus oryzophilus in rice plants assessed as leaf consumption rate per day at 50 ug treated as seed measured after 72 hr of feeding (reference value: 8.3 +/- 0.7 mm'2 /day); format: functional
[7] = test system: Lissorhoptrus oryzophilus; experiment: Insecticidal activity against Lissorhoptrus oryzophilus in rice plants assessed as leaf consumption rate per day at 25 ug treated as seed measured after 72 hr of feeding (reference value: 8.3 +/- 0.7 mm'2 /day); format: functional
[8] = test system: Lissorhoptrus oryzophilus; experiment: Insecticidal activity against Lissorhoptrus oryzophilus in rice plants assessed as leaf consumption rate per day at 10 ug treated as seed measured after 72 hr of feeding (reference value: 8.3 +/- 0.7 mm'2 /day); format: functional
[9] = test system: Lissorhoptrus oryzophilus; experiment: Insecticidal activity against Lissorhoptrus oryzophilus in five to six-leaf stage rice plants assessed as mortality treated as seed measured after 72 hr of feeding; format: functional, organism-based
[10] = test system: Lissorhoptrus oryzophilus; experiment: Insecticidal activity against Lissorhoptrus oryzophilus in three to four-leaf stage rice plants assessed as mortality treated as seed measured after 72 hr of feeding; format: functional
[11] = test system: Lissorhoptrus oryzophilus; experiment: Insecticidal activity against Lissorhoptrus oryzophilus in two to three-leaf stage rice plants assessed as mortality treated as seed measured after 72 hr of feeding; format: functional
[12] = test system: Lissorhoptrus oryzophilus; experiment: Insecticidal activity against Lissorhoptrus oryzophilus in rice plants assessed as mortality at 7 ug treated as seed measured after 72 hr of feeding (reference value: 3.8 +/- 1.8%); format: functional
[13] = test system: Lissorhoptrus oryzophilus; experiment: Insecticidal activity against Lissorhoptrus oryzophilus in rice plants assessed as leaf consumption rate per day at 7 ug treated as seed measured after 72 hr of feeding (reference value: 8.3 +/- 0.5 mm'2 /day); format: functional
[14] = test system: Lissorhoptrus oryzophilus; experiment: Insecticidal activity against Lissorhoptrus oryzophilus in rice plants assessed as mortality at 35 ug treated as seed measured after 72 hr of feeding (reference value: 3.8 +/- 1.8%); format: functional
[15] = test system: Lissorhoptrus oryzophilus; experiment: Insecticidal activity against Lissorhoptrus oryzophilus in rice plants assessed as mortality at 28 ug treated as seed measured after 72 hr of feeding (reference value: 3.8 +/- 1.8%); format: functional
[16] = test system: Lissorhoptrus oryzophilus; experiment: Insecticidal activity against Lissorhoptrus oryzophilus in rice plants assessed as mortality at 21 ug treated as seed measured after 72 hr of feeding (reference value: 3.8 +/- 1.8%); format: functional
[17] = test system: Lissorhoptrus oryzophilus; experiment: Insecticidal activity against Lissorhoptrus oryzophilus in rice plants assessed as mortality at 14 ug treated as seed measured after 72 hr of feeding (reference value: 3.8 +/- 1.8%); format: functional
[18] = test system: Lissorhoptrus oryzophilus; experiment: Insecticidal activity against Lissorhoptrus oryzophilus in rice plants assessed as leaf consumption rate per day at 35 ug treated as seed measured after 72 hr of feeding (reference value: 8.3 +/- 0.5 mm'2 /day); format: functional
[19] = test system: Lissorhoptrus oryzophilus; experiment: Insecticidal activity against Lissorhoptrus oryzophilus in rice plants assessed as leaf consumption rate per day at 28 ug treated as seed measured after 72 hr of feeding (reference value: 8.3 +/- 0.5 mm'2 /day); format: functional
[20] = test system: Lissorhoptrus oryzophilus; experiment: Insecticidal activity against Lissorhoptrus oryzophilus in rice plants assessed as leaf consumption rate per day at 21 ug treated as seed measured after 72 hr of feeding (reference value: 8.3 +/- 0.5 mm'2 /day); format: functional
[21] = test system: Lissorhoptrus oryzophilus; experiment: Insecticidal activity against Lissorhoptrus oryzophilus in rice plants assessed as leaf consumption rate per day at 14 ug treated as seed measured after 72 hr of feeding (reference value: 8.3 +/- 0.5 mm'2 /day); format: functional

Structure (SMILES): CNC(=O)c1cc(Cl)cc(C)c1NC(=O)c1cc(Br)nn1-c1ncccc1Cl [CHLORANTRANILIPROLE]
- mortality [1]: 16.3%
- mortality [2]: 12.5%
- mortality [3]: 20%
- mortality [4]: 10%
- Activity [5]: 9.4 mm2
- Activity [6]: 7.3 mm2
- Activity [7]: 6.7 mm2
- Activity [8]: 8.3 mm2

Structure (SMILES): CN1COCN(Cc2cnc(Cl)s2)/C1=N\[N+](=O)[O-] [THIAMETHOXAM]
- Activity [9]: Active
- LC50 [10]: 142 pg
- LC50 [11]: 447 pg
- mortality [12]: 22.5%
- Activity [13]: 6.9 mm2
- mortality [14]: 45%
- mortality [15]: 42.5%
- mortality [16]: 28.8%
- mortality [17]: 21.3%
- Activity [18]: 6.4 mm2
- Activity [19]: 5.2 mm2
- Activity [20]: 5.5 mm2
- Activity [21]: 6.6 mm2
